Laboratory results reported in the supplement of paper PMC10307832.

Key:
Experiment in all cases: relative viability (nuclei count vs DMSO), 5 days (fraction); higher = more cells survive
A549 = tested on: A549
Summary of the method: (§1)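 Lung cancer cell lines were seeded in 1536-well plates and dosed by pin tool the next day, with either a single drug or a fixed anchor-drug dose combined with five library-drug doses (not always all listed) spaced in √10 steps. Five days later, one step fixed the cells and stained their nuclei (final 0.05% Triton X-100, 1% formaldehyde, 1 ug/ml Hoechst), and nuclei were counted on 4× images. Relative viability is the nuclei count in treated wells divided by the count in vehicle wells, and each value is the median of duplicate plates.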

NCI-H1703 = tested on: NCI-H1703
Summary of the method: as §1

Calu-6 = tested on: Calu-6
Summary of the method: as §1

NCI-H1299 = tested on: NCI-H1299
Summary of the method: as §1

IA-LM = tested on: IA-LM
Summary of the method: as §1

NCI-H1623 = tested on: NCI-H1623
Summary of the method: as §1

CCCCCCCCCCCC1=C(O)C(=O)C=C(O)C1=O [Embelin] + C[C@@H](Oc1cc(-c2cnn(C3CCNCC3)c2)cnc1N)c1c(Cl)ccc(F)c1Cl [Crizotinib] (partner 1 µM)
relative viability (A549; first compound 0.08 µM): 0.834 | relative viability (A549; first compound 0.8 µM): 0.81 | relative viability (A549; first compound 2.53 µM): 0.987 | relative viability (A549; first compound 8 µM): 0.915 | relative viability (NCI-H1703; first compound 0.08 µM): 0.8 | relative viability (NCI-H1703; first compound 0.8 µM): 1.17 | relative viability (NCI-H1703; first compound 2.53 µM): 0.806 | relative viability (NCI-H1703; first compound 8 µM): 0.975 | relative viability (Calu-6; first compound 0.08 µM): 0.738 | relative viability (Calu-6; first compound 0.8 µM): 0.854 | relative viability (Calu-6; first compound 2.53 µM): 0.822 | relative viability (Calu-6; first compound 8 µM): 0.692 | relative viability (NCI-H1299; first compound 0.08 µM): 0.954 | relative viability (NCI-H1299; first compound 0.8 µM): 1.02 | relative viability (NCI-H1299; first compound 2.53 µM): 0.963 | relative viability (NCI-H1299; first compound 8 µM): 0.94 | relative viability (IA-LM; first compound 0.08 µM): 0.718 | relative viability (IA-LM; first compound 0.8 µM): 0.85 | relative viability (IA-LM; first compound 2.53 µM): 0.729 | relative viability (IA-LM; first compound 8 µM): 0.743

CCCCCCCCCCCC1=C(O)C(=O)C=C(O)C1=O [Embelin] + C[C@]1(O)C[C@@H](c2nc(-c3ccc4ccc(-c5ccccc5)nc4c3)c3c(N)nccn32)C1 [Linsitinib] (partner 1 µM)
relative viability (A549; first compound 0.08 µM): 0.546 | relative viability (A549; first compound 0.8 µM): 0.717 | relative viability (A549; first compound 2.53 µM): 0.582 | relative viability (A549; first compound 8 µM): 0.456 | relative viability (NCI-H1703; first compound 0.08 µM): 0.983 | relative viability (NCI-H1703; first compound 2.53 µM): 0.634 | relative viability (NCI-H1703; first compound 8 µM): 0.599 | relative viability (Calu-6; first compound 0.08 µM): 0.993 | relative viability (Calu-6; first compound 0.8 µM): 1.1 | relative viability (Calu-6; first compound 2.53 µM): 0.981 | relative viability (Calu-6; first compound 8 µM): 0.959 | relative viability (NCI-H1299; first compound 0.08 µM): 0.93 | relative viability (NCI-H1299; first compound 0.8 µM): 1.04 | relative viability (NCI-H1299; first compound 2.53 µM): 1.06 | relative viability (NCI-H1299; first compound 8 µM): 0.938 | relative viability (IA-LM; first compound 0.08 µM): 0.425 | relative viability (IA-LM; first compound 0.8 µM): 0.799 | relative viability (IA-LM; first compound 2.53 µM): 0.536 | relative viability (IA-LM; first compound 8 µM): 0.241

CCCCCCCCCCCC1=C(O)C(=O)C=C(O)C1=O [Embelin] + Cc1cc(Nc2cc(N3CCN(C)CC3)nc(Sc3ccc(NC(=O)C4CC4)cc3)n2)n[nH]1 [Tozasertib] (partner 0.1 µM)
relative viability (NCI-H1623; first compound 0.08 µM): 0.44 | relative viability (NCI-H1623; first compound 0.8 µM): 0.412 | relative viability (NCI-H1623; first compound 2.53 µM): 0.45 | relative viability (NCI-H1623; first compound 8 µM): 0.423

CCCCCCCCCCCC1=C(O)C(=O)C=C(O)C1=O [Embelin] + Cc1nc(NC(=O)N2CCC[C@H]2C(N)=O)sc1-c1ccnc(C(C)(C)C(F)(F)F)c1 [Alpelisib] (partner 2 µM)
relative viability (A549; first compound 0.08 µM): 0.901 | relative viability (A549; first compound 0.8 µM): 0.794 | relative viability (A549; first compound 2.53 µM): 0.837 | relative viability (A549; first compound 8 µM): 0.728 | relative viability (NCI-H1703; first compound 0.08 µM): 0.428 | relative viability (NCI-H1703; first compound 0.8 µM): 0.436 | relative viability (NCI-H1703; first compound 2.53 µM): 0.309 | relative viability (NCI-H1703; first compound 8 µM): 0.238 | relative viability (Calu-6; first compound 0.08 µM): 0.983 | relative viability (Calu-6; first compound 0.8 µM): 0.935 | relative viability (Calu-6; first compound 2.53 µM): 0.978 | relative viability (Calu-6; first compound 8 µM): 0.893 | relative viability (NCI-H1299; first compound 0.08 µM): 1.08 | relative viability (NCI-H1299; first compound 0.8 µM): 1.07 | relative viability (NCI-H1299; first compound 2.53 µM): 1.07 | relative viability (NCI-H1299; first compound 8 µM): 1.11 | relative viability (IA-LM; first compound 0.08 µM): 0.778 | relative viability (IA-LM; first compound 0.8 µM): 0.753 | relative viability (IA-LM; first compound 2.53 µM): 0.839 | relative viability (IA-LM; first compound 8 µM): 0.191

CCCCCCCCCCCC1=C(O)C(=O)C=C(O)C1=O [Embelin] + Cc1nc(Nc2ncc(C(=O)Nc3c(C)cccc3Cl)s2)cc(N2CCN(CCO)CC2)n1 [Dasatinib] (partner 0.075 µM)
relative viability (NCI-H1623; first compound 0.08 µM): 0.554 | relative viability (NCI-H1623; first compound 0.8 µM): 0.542 | relative viability (NCI-H1623; first compound 2.53 µM): 0.534 | relative viability (NCI-H1623; first compound 8 µM): 0.555

CCCCCCCCCCCC1=C(O)C(=O)C=C(O)C1=O [Embelin] + N=C(N)NC(=N)NCCc1ccccc1 [Phenformin] (partner 250 µM)
relative viability (A549; first compound 0.08 µM): 0.204 | relative viability (A549; first compound 0.8 µM): 0.167 | relative viability (A549; first compound 2.53 µM): 0.185 | relative viability (A549; first compound 8 µM): 0.0745 | relative viability (NCI-H1623; first compound 0.08 µM): 0.601 | relative viability (NCI-H1623; first compound 0.8 µM): 0.612 | relative viability (NCI-H1623; first compound 2.53 µM): 0.62 | relative viability (NCI-H1623; first compound 8 µM): 0.602

CCCCCCCCCCCC1=C(O)C(=O)C=C(O)C1=O [Embelin] + NC(=O)Nc1cc(-c2cccc(F)c2)sc1C(=O)N[C@H]1CCCNC1 [AZD7762] (partner 0.2 µM)
relative viability (NCI-H1703; first compound 0.08 µM): 0.132 | relative viability (NCI-H1703; first compound 0.8 µM): 0.166 | relative viability (NCI-H1703; first compound 2.53 µM): 0.131 | relative viability (NCI-H1703; first compound 8 µM): 0.143

CCCCCCCCCCCC1=C(O)C(=O)C=C(O)C1=O [Embelin] + Nc1ncn([C@H]2C[C@H](O)[C@@H](CO)O2)c(=O)n1 [Decitabine] (partner 2 µM)
relative viability (A549; first compound 0.08 µM): 0.303 | relative viability (A549; first compound 0.8 µM): 0.252 | relative viability (A549; first compound 2.53 µM): 0.326 | relative viability (A549; first compound 8 µM): 0.277

CCCCCCCCCCCC1=C(O)C(=O)C=C(O)C1=O [Embelin] + O=C(CCCCCCC(=O)Nc1ccccc1)NO [Vorinostat] (partner 1 µM)
relative viability (IA-LM; first compound 0.08 µM): 0.963 | relative viability (IA-LM; first compound 0.8 µM): 1.03 | relative viability (IA-LM; first compound 2.53 µM): 1.2 | relative viability (IA-LM; first compound 8 µM): 0.937

CCCCCCCCCCCC1=C(O)C(=O)C=C(O)C1=O [Embelin] + O=C(c1cc(Cc2n[nH]c(=O)c3ccccc23)ccc1F)N1CCN(C(=O)C2CC2)CC1 [Olaparib] (partner 8 µM)
relative viability (A549; first compound 0.08 µM): 0.32 | relative viability (A549; first compound 0.8 µM): 0.187 | relative viability (A549; first compound 2.53 µM): 0.424 | relative viability (A549; first compound 8 µM): 0.366 | relative viability (NCI-H1703; first compound 0.08 µM): 0.457 | relative viability (NCI-H1703; first compound 0.8 µM): 0.442 | relative viability (NCI-H1703; first compound 2.53 µM): 0.388 | relative viability (NCI-H1703; first compound 8 µM): 0.286 | relative viability (Calu-6; first compound 0.08 µM): 0.589 | relative viability (Calu-6; first compound 0.8 µM): 0.682 | relative viability (Calu-6; first compound 2.53 µM): 0.573 | relative viability (Calu-6; first compound 8 µM): 0.655 | relative viability (NCI-H1299; first compound 0.08 µM): 0.987 | relative viability (NCI-H1299; first compound 0.8 µM): 1.01 | relative viability (NCI-H1299; first compound 2.53 µM): 0.994 | relative viability (NCI-H1299; first compound 8 µM): 0.987 | relative viability (IA-LM; first compound 0.08 µM): 0.899 | relative viability (IA-LM; first compound 0.8 µM): 0.894 | relative viability (IA-LM; first compound 2.53 µM): 0.847 | relative viability (IA-LM; first compound 8 µM): 0.616
